Results: the supplement of paper PMC10307832

Experiments:
Assay in all cases: relative viability (nuclei count vs DMSO), 5 days (fraction); higher = more cells survive
[1] = compound: CN[C@@H]1C[C@H]2O[C@@](C)([C@@H]1OC)n1c3ccccc3c3c4c(c5c6ccccc6n2c5c31)C(=O)NC4 [Staurosporine] + CC(=O)Nc1cccc(-n2c(=O)n(C3CC3)c(=O)c3c(Nc4ccc(I)cc4F)n(C)c(=O)c(C)c32)c1 [Trametinib] (partner 0.02 µM)
Summary of the method: (§1)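 Lung cancer cell lines, seeded in 1536-well plates, were treated the following day by pin tool with a single drug or with five library-drug doses (not always all listed) in √10 steps on top of a fixed anchor-drug dose. Cells were fixed and nuclei stained in one step after 5 days, and nuclei were counted. Relative viability is the nuclei count for treated wells divided by that for vehicle wells, reported as medians of duplicate plates.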

Sulindac + Navitoclax = compound: CC1=C(CC(=O)O)c2cc(F)ccc2/C1=C\c1ccc([S+](C)[O-])cc1 [Sulindac] + CC1(C)CCC(c2ccc(Cl)cc2)=C(CN2CCN(c3ccc(C(=O)NS(=O)(=O)c4ccc(N[C@H](CCN5CCOCC5)CSc5ccccc5)c(S(=O)(=O)C(F)(F)F)c4)cc3)CC2)C1 [Navitoclax] (partner 0.5 µM)
Summary of the method: as §1

Sulindac + Phenformin = compound: CC1=C(CC(=O)O)c2cc(F)ccc2/C1=C\c1ccc([S+](C)[O-])cc1 [Sulindac] + N=C(N)NC(=N)NCCc1ccccc1 [Phenformin] (partner 250 µM)
Summary of the method: as §1

[2] = compound: CN[C@@H]1C[C@H]2O[C@@](C)([C@@H]1OC)n1c3ccccc3c3c4c(c5c6ccccc6n2c5c31)C(=O)NC4 [Staurosporine] + CCNC(=O)c1noc(-c2cc(C(C)C)c(O)cc2O)c1-c1ccc(CN2CCOCC2)cc1 [Luminespib] (partner 0.01 µM)
Summary of the method: as §1

Row | Cell Line | relative viability ([1]; first compound 0.05 µM) | relative viability ([1]; first compound 0.1581 µM) | relative viability ([1]; first compound 0.5 µM) | relative viability (Sulindac + Navitoclax; first compound 0.08 µM) | relative viability (Sulindac + Navitoclax; first compound 0.253 µM) | relative viability (Sulindac + Navitoclax; first compound 0.8 µM) | relative viability (Sulindac + Navitoclax; first compound 2.53 µM) | relative viability (Sulindac + Navitoclax; first compound 8 µM) | relative viability (Sulindac + Phenformin; first compound 0.08 µM) | relative viability (Sulindac + Phenformin; first compound 0.253 µM) | relative viability (Sulindac + Phenformin; first compound 0.8 µM) | relative viability (Sulindac + Phenformin; first compound 2.53 µM) | relative viability (Sulindac + Phenformin; first compound 8 µM) | relative viability ([2]; first compound 0.005 µM) | relative viability ([2]; first compound 0.05 µM) | relative viability ([2]; first compound 0.1581 µM) | relative viability ([2]; first compound 0.5 µM) | relative viability ([1]; first compound 0.005 µM) | relative viability ([1]; first compound 0.01581 µM) | relative viability ([2]; first compound 0.01581 µM)
1 | NCI-H2170 | 0.904 | 0.63 | 0.379 | 0.564 | 0.638 | 0.495 | 0.71 | 0.6 | 0.471 | 0.407 | 0.411 | 0.384 | 0.432 | 0.587 | 0.463 | 0.238 | 0.148 | – | – | –
2 | HCC-366 | 0.0839 | 0.0291 | 0.0289 | 1.32 | 1.19 | 0.817 | 0.957 | 1.18 | 0.651 | 0.679 | 0.587 | 0.61 | 0.703 | – | – | – | – | 0.242 | – | –
3 | NCI-H2405 | 0.148 | 0.0927 | 0.0684 | 0.934 | 0.9 | 0.783 | 0.859 | 1.11 | 0.395 | 0.455 | 0.505 | 0.389 | 0.465 | 0.282 | 0.0814 | 0.112 | 0.0639 | 0.355 | 0.161 | 0.148
4 | COR-L 105 | 0.274 | 0.234 | 0.237 | 0.591 | 0.987 | 0.901 | 0.722 | 0.962 | 0.456 | 0.477 | 0.417 | 0.564 | 0.558 | 0.364 | 0.192 | 0.253 | 0.161 | 0.427 | 0.357 | 0.277
5 | 201T | 0.703 | 0.58 | 0.485 | 1.19 | 1.15 | 1.27 | 1.16 | 1.23 | 0.478 | 0.435 | 0.314 | 0.451 | 0.486 | 1.03 | 0.693 | 0.349 | 0.334 | 0.769 | – | –
6 | NCI-H2228 | 0.169 | 0.0671 | 0.0687 | 0.937 | 0.967 | 0.839 | 1.46 | 1.01 | 0.388 | 0.352 | 0.254 | 0.271 | 0.341 | 0.0928 | 0.0907 | 0.0947 | 0.0857 | 0.332 | 0.089 | 0.122
7 | LC-2-ad | 0.559 | 0.165 | 0.122 | 0.384 | 0.495 | 0.548 | 0.434 | 0.564 | 0.513 | 0.61 | 0.427 | 0.516 | 0.697 | 0.976 | 0.341 | 0.219 | 0.185 | 0.945 | 0.732 | 0.41
